# Test results: US10125098B2, “Therapeutic compounds and methods of use thereof” (GENENTECH, INC., priority 2014, dated 2018)
# pIC50: −log10 of the molar value. Counter-ions that a name gives are not always drawn. Like-named read-outs stand apart in the source and are kept apart here.
# Assays:
# [1] = target: T1, hNav1.7 (Homo sapiens, UniProt Q15858); test: Tritiated compound binding (LBA) to membranes from cells expressing hNav1.7 and the β1 subunit, competitive binding; details: competitive binding vs 100 pM [3H]compound, 18 h, room temperature, membranes with hNav1.7 and β1 subunit
# T1 construct: expressed in transfected cells
# T1 sequence (Q15858 1-1977 isoform Q15858-3): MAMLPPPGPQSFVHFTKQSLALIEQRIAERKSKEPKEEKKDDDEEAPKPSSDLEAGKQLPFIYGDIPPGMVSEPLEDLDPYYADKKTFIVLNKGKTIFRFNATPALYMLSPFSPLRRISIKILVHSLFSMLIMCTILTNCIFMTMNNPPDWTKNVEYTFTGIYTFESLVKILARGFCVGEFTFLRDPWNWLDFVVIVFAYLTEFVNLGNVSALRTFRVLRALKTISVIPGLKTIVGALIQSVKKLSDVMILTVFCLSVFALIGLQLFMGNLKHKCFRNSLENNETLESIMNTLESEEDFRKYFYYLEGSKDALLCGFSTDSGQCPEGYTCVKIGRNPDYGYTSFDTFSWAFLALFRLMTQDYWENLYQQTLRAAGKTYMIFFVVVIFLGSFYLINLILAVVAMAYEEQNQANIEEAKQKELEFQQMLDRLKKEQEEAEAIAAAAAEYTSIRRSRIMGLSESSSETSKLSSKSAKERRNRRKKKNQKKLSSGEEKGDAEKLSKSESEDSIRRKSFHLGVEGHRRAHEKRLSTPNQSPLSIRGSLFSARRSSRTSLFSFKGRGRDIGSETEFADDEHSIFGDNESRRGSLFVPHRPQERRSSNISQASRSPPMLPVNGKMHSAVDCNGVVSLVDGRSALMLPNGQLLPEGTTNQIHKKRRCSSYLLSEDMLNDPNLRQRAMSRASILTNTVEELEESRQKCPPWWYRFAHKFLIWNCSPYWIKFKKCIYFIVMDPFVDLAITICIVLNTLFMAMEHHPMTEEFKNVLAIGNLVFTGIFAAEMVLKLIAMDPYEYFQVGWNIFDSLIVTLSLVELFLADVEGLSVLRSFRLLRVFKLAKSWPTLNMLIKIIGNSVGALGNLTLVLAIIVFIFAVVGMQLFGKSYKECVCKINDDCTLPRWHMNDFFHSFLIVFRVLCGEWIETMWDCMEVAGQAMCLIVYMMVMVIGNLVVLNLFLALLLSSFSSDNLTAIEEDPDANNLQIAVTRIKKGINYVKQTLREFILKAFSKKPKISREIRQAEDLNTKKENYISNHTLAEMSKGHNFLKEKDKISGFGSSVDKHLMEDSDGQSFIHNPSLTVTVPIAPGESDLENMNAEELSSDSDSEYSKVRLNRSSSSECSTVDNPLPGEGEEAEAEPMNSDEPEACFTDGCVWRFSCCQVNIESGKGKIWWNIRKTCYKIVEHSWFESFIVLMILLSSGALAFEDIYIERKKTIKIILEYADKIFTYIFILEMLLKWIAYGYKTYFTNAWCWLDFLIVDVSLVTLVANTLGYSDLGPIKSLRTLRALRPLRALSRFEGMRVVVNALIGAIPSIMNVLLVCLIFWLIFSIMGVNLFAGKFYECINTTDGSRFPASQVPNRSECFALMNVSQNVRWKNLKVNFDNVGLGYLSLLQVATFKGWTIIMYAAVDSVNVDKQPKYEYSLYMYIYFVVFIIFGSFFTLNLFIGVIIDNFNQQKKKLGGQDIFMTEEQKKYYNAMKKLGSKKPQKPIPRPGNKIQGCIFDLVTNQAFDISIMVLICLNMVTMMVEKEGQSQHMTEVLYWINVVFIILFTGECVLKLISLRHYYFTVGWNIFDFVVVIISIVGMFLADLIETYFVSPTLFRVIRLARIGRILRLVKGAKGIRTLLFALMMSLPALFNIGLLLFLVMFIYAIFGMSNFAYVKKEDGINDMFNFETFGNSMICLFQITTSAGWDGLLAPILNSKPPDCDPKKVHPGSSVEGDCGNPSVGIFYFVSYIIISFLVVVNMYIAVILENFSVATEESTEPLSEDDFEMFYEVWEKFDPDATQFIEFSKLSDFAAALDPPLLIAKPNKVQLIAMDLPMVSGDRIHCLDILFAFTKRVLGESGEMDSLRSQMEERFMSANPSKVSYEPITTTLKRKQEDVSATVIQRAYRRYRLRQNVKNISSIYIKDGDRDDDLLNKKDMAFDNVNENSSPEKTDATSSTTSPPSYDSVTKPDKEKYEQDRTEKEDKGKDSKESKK
# T1 sequence (Q07699 19-218 partner): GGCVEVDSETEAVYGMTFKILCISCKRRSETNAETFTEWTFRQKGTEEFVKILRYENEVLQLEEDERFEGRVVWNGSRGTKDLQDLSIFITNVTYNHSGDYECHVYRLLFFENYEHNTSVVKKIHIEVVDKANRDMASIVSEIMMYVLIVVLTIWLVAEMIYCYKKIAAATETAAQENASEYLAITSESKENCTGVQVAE
# Method in brief: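 Competitive displacement of 100 pM [3H]compound (tritiated methyl analogue of formula (I)) from hNav1.7/β1 membranes, 18 h at room temperature in NaCl/Tris pH 7.4 buffer containing 0.01% BSA. 1 μM unlabeled compound set non-specific binding. Bound label quantified by scintillation after filtration; 4-parameter fit gave IC50.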
# [2] = target: T2, human NaV1.7 (Homo sapiens, UniProt Q15858); test: Patch voltage clamp electrophysiology assay (EP), NaV1.7; assay type: cell-based; details: HEK-293 cells stably expressing NaV1.7 with β1 subunit; whole-cell patch clamp, membrane potential −60 mV (inactivated state)
# T2 construct: permanently transfected with an expression vector containing the full-length cDNA coding for the desired human sodium channel α-subunit; expressed in transfected cells; host or cells: HEK-293
# T2 sequence (Q15858 1-1977 isoform Q15858-3): as the sequence (Q15858 1-1977 isoform Q15858-3) above
# T2 sequence (Q07699 19-218 partner): as the sequence (Q07699 19-218 partner) above
# Method in brief: (§1)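 Percent block is the drop in sodium current after compound wash-on, measured by a test pulse following 20 ms at −150 mV from a −60 mV inactivating holding potential.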
# [3] = target: T3, NaV1.5 (Homo sapiens, UniProt Q14524); test: Patch voltage clamp electrophysiology assay (EP), NaV1.5; assay type: cell-based
# T3 construct: permanently transfected with an expression vector containing the full-length cDNA coding for the desired human sodium channel α-subunit; expressed in transfected cells; host or cells: HEK-293
# T3 sequence (Q14524 whole entry): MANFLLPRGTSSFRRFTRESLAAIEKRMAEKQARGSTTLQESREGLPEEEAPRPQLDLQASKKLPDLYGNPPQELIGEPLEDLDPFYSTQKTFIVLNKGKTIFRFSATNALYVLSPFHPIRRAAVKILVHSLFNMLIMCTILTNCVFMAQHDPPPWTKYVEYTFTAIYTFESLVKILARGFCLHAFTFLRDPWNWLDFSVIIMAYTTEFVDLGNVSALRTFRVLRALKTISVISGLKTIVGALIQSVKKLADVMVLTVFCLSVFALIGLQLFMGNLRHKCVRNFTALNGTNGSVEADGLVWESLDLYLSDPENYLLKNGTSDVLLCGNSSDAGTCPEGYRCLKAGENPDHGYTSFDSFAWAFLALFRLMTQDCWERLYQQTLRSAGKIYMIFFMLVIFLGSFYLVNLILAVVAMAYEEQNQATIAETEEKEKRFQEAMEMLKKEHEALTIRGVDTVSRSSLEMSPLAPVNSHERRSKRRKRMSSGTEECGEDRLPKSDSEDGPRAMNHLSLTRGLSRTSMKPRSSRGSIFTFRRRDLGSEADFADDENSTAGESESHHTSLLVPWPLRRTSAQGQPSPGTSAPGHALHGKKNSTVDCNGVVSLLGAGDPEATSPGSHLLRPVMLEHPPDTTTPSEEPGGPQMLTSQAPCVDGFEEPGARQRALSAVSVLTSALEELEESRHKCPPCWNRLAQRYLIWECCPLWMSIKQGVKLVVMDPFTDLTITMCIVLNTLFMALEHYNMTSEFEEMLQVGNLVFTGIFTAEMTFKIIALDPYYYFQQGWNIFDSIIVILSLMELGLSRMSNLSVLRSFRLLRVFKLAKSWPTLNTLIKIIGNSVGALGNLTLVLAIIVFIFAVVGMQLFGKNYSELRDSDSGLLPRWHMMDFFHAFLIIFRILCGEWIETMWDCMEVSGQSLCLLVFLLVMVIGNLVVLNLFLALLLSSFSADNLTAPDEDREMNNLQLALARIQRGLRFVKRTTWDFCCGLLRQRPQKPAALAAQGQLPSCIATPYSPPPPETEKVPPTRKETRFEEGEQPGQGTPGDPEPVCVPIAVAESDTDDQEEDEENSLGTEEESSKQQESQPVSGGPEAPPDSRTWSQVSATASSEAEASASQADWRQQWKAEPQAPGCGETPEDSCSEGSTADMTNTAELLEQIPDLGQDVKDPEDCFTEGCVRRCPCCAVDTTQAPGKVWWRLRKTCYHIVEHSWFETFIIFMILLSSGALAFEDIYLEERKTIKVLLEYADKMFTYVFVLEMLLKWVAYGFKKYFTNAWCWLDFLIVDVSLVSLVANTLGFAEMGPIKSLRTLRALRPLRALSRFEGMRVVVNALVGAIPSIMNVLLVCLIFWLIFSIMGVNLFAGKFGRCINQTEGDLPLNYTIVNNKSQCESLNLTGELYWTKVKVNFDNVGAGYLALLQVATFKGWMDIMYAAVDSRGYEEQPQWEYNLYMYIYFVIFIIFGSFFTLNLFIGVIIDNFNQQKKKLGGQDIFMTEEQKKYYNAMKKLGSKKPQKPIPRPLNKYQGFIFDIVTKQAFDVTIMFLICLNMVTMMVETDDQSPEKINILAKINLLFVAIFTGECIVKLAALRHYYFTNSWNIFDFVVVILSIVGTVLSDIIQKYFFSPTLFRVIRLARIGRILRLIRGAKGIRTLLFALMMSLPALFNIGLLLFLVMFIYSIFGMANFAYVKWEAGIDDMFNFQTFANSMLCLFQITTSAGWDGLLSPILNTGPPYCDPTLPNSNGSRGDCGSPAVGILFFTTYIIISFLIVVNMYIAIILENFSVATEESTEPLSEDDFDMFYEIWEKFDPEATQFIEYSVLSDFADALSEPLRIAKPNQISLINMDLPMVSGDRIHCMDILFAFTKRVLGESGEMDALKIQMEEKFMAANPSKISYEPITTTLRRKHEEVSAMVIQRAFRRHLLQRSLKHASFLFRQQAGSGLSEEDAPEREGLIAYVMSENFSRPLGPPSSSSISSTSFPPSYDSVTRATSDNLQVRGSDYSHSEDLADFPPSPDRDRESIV
# Method in brief: as §1
# [4] = HEK-293 cells stably expressing NaV1.5 with β1 subunit, whole-cell patch clamp, membrane potential −60 mV (inactivated state), read-out: Nav1.5
# [5] = human, HEK-293 cells stably expressing human NaV1.5 with β1 subunit, pH 7.4, HEK-293 cells stably expressing NaV1.5 with β1 subunit, whole-cell patch clamp, membrane potential −60 mV (inactivated state)
Structure (SMILES),pIC50 [1],pIC50 [2],"pIC50 [3, 4]","pIC50 [3, 5]",pIC50 [3]
"CC(C)[C@@H](C(=O)O)N(C)C(=O)c1cc(C2CC2)c(COc2cc(Cl)cc(OC(F)(F)F)c2)cc1F [Example 187, (S)-2-(4-((3-chloro-5-(trifluoromethoxy)phenoxy)methyl)-5-cyclopropyl-2-fluoro-N-methylbenzamido)-3-methylbutanoic acid]",5.48,5.14,4.96,,
"NC(=O)[C@@H]1CCCN1C(=O)c1cc(C2CC2)c(COc2cc(Cl)cc(OC(F)(F)F)c2)cc1F [Example 188, (5)-1-(4-((3-chloro-5-(trifluoromethoxy)phenoxy)methyl)-5-cyclopropyl-2-fluorobenzoyl)pyrrolidine-2-carboxamide]",5.04,5.18,4.80,,
"O=C(N[C@@H](CC1CC1)C(=O)O)c1cc(C2CC2)c(OCC23CC4CC(CC(C4)C2)C3)cc1F [Example 189, (S)-2-(4-((3S,5S,7S)-adamantan-1-ylmethoxy)-5-cyclopropyl-2-fluorobenzamido)-3-cyclopropylpropanoic acid]",6.92,5.40,4.82,,
"O=C(O)[C@@H]1CCCN1C(=O)c1cc(C2CC2)c(OCC2CCN(Cc3cc(F)cc(Cl)c3)CC2)cc1F [Example 190, (S)-1-(4-((1-(3-chloro-5-fluorobenzyl)piperidin-4-yl)methoxy)-5-cyclopropyl-2-fluorobenzoyl)pyrrolidine-2-carboxylic acid]",6.72,5.54,,≤ 4.52,
"O=C(O)[C@@H]1CCCN1C(=O)c1cc(Cl)c(Oc2cnc(OCC(F)(F)F)c(Cl)c2)cc1F [Example 191, (S)-1-(5-Chloro-4-((5-chloro-6-(2,2,2-trifluoroethoxy)pyridin-3-yl)oxy)-2-fluorobenzoyl)pyrrolidine-2-carboxylic acid trifluoroacetate]",5.57,4.72,,≤ 4.52,
"O=C(O)[C@@H]1CCCN1C(=O)c1cc(C2CC2)c(OCC2CCN(C(c3ccccc3)c3cc(Cl)cc(Cl)c3)CC2)cc1F (stereo partly drawn) [Example 193, (2S)-1-(5-Cyclopropyl-4-((1-((3,5-dichlorophenyl)(phenyl)methyl)piperidin-4-yl)methoxy)-2-fluorobenzoyl)pyrrolidine-2-carboxylic acid trifluoroacetate]",7.70,6.00,5.12,,
"O=C(O)[C@@H]1CCCN1C(=O)c1cc(C2CCC2)c(OCC23CC4CC(CC(C4)C2)C3)cc1F [Example 194, (S)-1-(4-(adamantan-1-ylmethoxy)-5-cyclobutyl-2-fluorobenzoyl)pyrrolidine-2-carboxylic acid trifluoroacetate]",7.66,6.19,5.00,,
"Cc1nn(C2CCN(c3ccc(Cl)c(C(F)(F)F)n3)CC2)c2cc(F)c(C(=O)N3CCC[C@H]3C(=O)O)cc12 [Example 195, (S)-1-(1-(1-(5-chloro-6-(trifluoromethyl)pyridin-2-yl)piperidin-4-yl)-6-fluoro-3-methyl-1H-indazole-5-carbonyl)pyrrolidine-2-carboxylic acid trifluoroacetate]",5.72,5.23,,≤ 4.52,
"CC1(COc2cc(F)c(C(=O)N3CCC[C@H]3C(=O)O)cc2C2CC2)CN(C(c2ccccc2)c2cc(Cl)cc(Cl)c2)C1 (stereo partly drawn) [Example 196, (2S)-1-(5-cyclopropyl-4-((1-((3,5-dichlorophenyl)(phenyl)methyl)-3-methylazetidin-3-yl)methoxy)-2-fluorobenzoyl)pyrrolidine-2-carboxylic acid trifluoroacetate]",7.74,5.85,4.89,,
"O=C(O)[C@@H]1CCCN1C(=O)c1cc(C2CC2)c(OCC2CCN(Cc3nc(-c4ccccc4Cl)no3)CC2)cc1F [Example 197, (S)-1-(4-((1-((3-(2-chlorophenyl)-1,2,4-oxadiazol-5-yl)methyl)piperidin-4-yl)methoxy)-5-cyclopropyl-2-fluorobenzoyl)pyrrolidine-2-carboxylic acid trifluoroacetate]",6.20,5.41,,≤ 4.52,
"O=C(O)[C@@H]1CCC(=O)N1C(=O)c1cc(C2CC2)c(OCC23CC4CC(CC(C4)C2)C3)cc1F [Example 198, (S)-1-(4-(adamantan-1-ylmethoxy)-5-cyclopropyl-2-fluorobenzoyl)-5-oxopyrrolidine-2-carboxylic acid]",5.96,5.35,4.74,,
"O=C(NO)[C@@H]1C[C@@H](F)CN1C(=O)c1cc(C2CC2)c(OCC23CC4CC(CC(C4)C2)C3)cc1F [Example 199, 1-(4-(adamantan-1-ylmethoxy)-5-cyclopropyl-2-fluorobenzoyl)-4-fluoro-N-hydroxypyrrolidine-2-carboxamide]",6.33,5.44,4.82,,
"O=C(O)[C@@H]1CC2(CC2)CN1C(=O)c1cc(C2CC2)c(OCC23CC4CC(CC(C4)C2)C3)cc1F [Example 200, (S)-5-(4-(adamantan-1-ylmethoxy)-5-cyclopropyl-2-fluorobenzoyl)-5-azaspiro[2.4]heptane-6-carboxylic acid]",7.08,6.10,,,4.92
"O=C(c1cc(C2CC2)c(OCC23CC4CC(CC(C4)C2)C3)cc1F)N1C[C@H](F)C[C@H]1C(O)(C(F)(F)F)C(F)(F)F [Example 201, (4-(adamantan-1-ylmethoxy)-5-cyclopropyl-2-fluorophenyl)((2S,4R)-4-fluoro-2-(1,1,1,3,3,3-hexafluoro-2-hydroxypropan-2-yl)pyrrolidin-1-yl)methanone]",≤ 5.00,4.89,4.62,,
"CC1(C)[C@@H]2[C@@H](C(=O)O)N(C(=O)c3cc(C4CC4)c(OCC45CC6CC(CC(C6)C4)C5)cc3F)C[C@@H]21 [Example 202, (1R,2S,5S)-3-(4-(adamantan-1-ylmethoxy)-5-cyclopropyl-2-fluorobenzoyl)-6,6-dimethyl-3-azabicyclo[3.1.0]hexane-2-carboxylic acid]",5.72,5.36,4.80,,
O=C(O)[C@@H]1C=C(C(F)(F)F)CN1C(=O)c1cc(C2CC2)c(OCC23CC4CC(CC(C4)C2)C3)cc1F [Example 203],≤ 5.00,5.00,4.72,,
"O=C(O)[C@@H]1C[C@@H](F)CN1C(=O)c1c(F)cc(OCC23CC4CC(CC(C4)C2)C3)cc1C1CC1 [Example 204, (2S,4R)-1-(4-(adamantan-1-ylmethoxy)-2-cyclopropyl-6-fluorobenzoyl)-4-fluoropyrrolidine-2-carboxylic acid]",6.25,5.11,4.64,,
"CO[C@H]1CN(C(=O)c2cc(C3CC3)c(OCC34CC5CC(CC(C5)C3)C4)cc2F)[C@H](C(=O)O)C1C (stereo partly drawn) [Example 205, (2S,4R)-1-(4-(adamantan-1-ylmethoxy)-5-cyclopropyl-2-fluorobenzoyl)-4-methoxy-3-methylpyrrolidine-2-carboxylic acid]",6.77,5.66,4.60,,
"O=C(O)C[C@@H]1CCCN1C(=O)c1cc(C2CC2)c(OCC23CC4CC(CC(C4)C2)C3)cc1F [Example 206, 2-((S)-1-(4-(adamantan-1-ylmethoxy)-5-cyclopropyl-2-fluorobenzoyl)pyrrolidin-2-yl)acetic acid]",6.59,5.59,4.80,,
"CO[C@@H]1CN(C(=O)c2cc(C3CC3)c(OCC34CC5CC(CC(C5)C3)C4)cc2F)[C@H](C(=O)O)[C@H]1C [Example 207, (2S,3R,4S)-1-(4-(adamantan-1-ylmethoxy)-5-cyclopropyl-2-fluorobenzoyl)-4-methoxy-3-methylpyrrolidine-2-carboxylic acid]",7.44,6.42,4.80,,
"CC1[C@H](O)CN(C(=O)c2cc(C3CC3)c(OCC3(F)CCN([C@@H](C)c4cc(Cl)cc(Cl)c4)CC3)cc2F)[C@@H]1C(=O)O (stereo partly drawn) [Example 208, (2S,4S)-1-(5-Cyclopropyl-4-((1-((S)-1-(3,5-dichlorophenyl)ethyl)-4-fluoropiperidin-4-yl)methoxy)-2-fluorobenzoyl)-4-hydroxy-3-methylpyrrolidine-2-carboxylic acid]",7.09,6.68,4.80,,
"CC1[C@@H](C(=O)O)N(C(=O)c2cc(C3CC3)c(OCC3(F)CCN([C@@H](C)c4cc(Cl)cc(Cl)c4)CC3)cc2F)C[C@@H]1F (stereo partly drawn) [Example 209, (2S,4R)-1-(5-cyclopropyl-4-((1-((S)-1-(3,5-dichlorophenyl)ethyl)-4-fluoropiperidin-4-yl)methoxy)-2-fluorobenzoyl)-4-fluoro-3-methylpyrrolidine-2-carboxylic acid]",6.70,6.15,4.70,,
"C[C@@H]1[C@H](F)CN(C(=O)c2cc(C3CC3)c(OCC34CC5CC(CC(C5)C3)C4)cc2F)[C@@H]1C(=O)O [Example 210a, (2S,3S,4S)-1-(4-(adamantan-1-ylmethoxy)-5-cyclopropyl-2-fluorobenzoyl)-4-fluoro-3-methylpyrrolidine-2-carboxylic acid]",6.66,5.72,4.57,,
